Measured values published in patent US10632137B2, “Composition containing ivermectin for exterminating Clavinema mariae infection on Sebastes schlegeli” (REPUBLIC OF KOREA (National Institute of Fisheries Science), priority 2017, dated 2020).
“Also recorded” adds a separate entry of the source.

Experiments:
[1] = tested on: Clavinema mariae; test: organism not typed; conditions: for Antiparasitic effect of Clavinema mariae in vitro compared with the recommended concentration: in vitro killing concentration versus recommended concentration of Table 3; for Killing Concentration (ppm): in vitro, Clavinema mariae in PBS, 1 hour; for Viability of Clavinema mariae (Dead %/Survived): after 1 hour
Text: Candidate materials of a medicine for exterminating Clavinema mariae infection on Sebastes schlegeli were screened by examining various documents (Table 1). […] From the Sebastes schlegeli naturally infected with Clavinema mariae, the Clavinema mariae was carefully removed with tweezers, preserved in PBS, and directly exposed to nine candidate materials at various concentrations to evaluate the antiparasitic effect. […] However, after being killed, the movement disappears, and thus whether it is dead or not is able to be easily determined by observing whether it moves or not. Among the nine candidate materials, Febendazole, Pyrantel, Levamisole, Piperazine, Ivermectin, Trichlorfon, and Praziqantel were purchased from Sigma Aldrich (USA), and hydrogen peroxide and formalin solution were purchased from Junsei (Japan). Among the candidate materials, a poorly soluble compound, Febendazole, was dissolved in 100% ethanol and diluted with PBS to be used. Piperazine and Ivermectin were dissolved in dimethylsulfoxide (DMSO) and diluted with PBS to be used.
Clavinema mariae was extracted from Sebastes schlegeli (average weight: 150 g) cultivated on the west coast of Cheonsu Bay area (FIG. 1), 2 ml of each candidate material diluted with PBS to have each concentration was dispensed into a 6-well plate. Ten (10) living Clavinema mariae were placed in each well, and viability thereof was confirmed after 1 hour (FIG. 2).

[2] = tested on: Clavinema mariae; test: In vivo killing (antiparasitic) effect in Sebastes schlegeli naturally infected with Clavinema mariae
Protocol: 500 Sebastes schlegeli (116±17 g, 20±9 cm) on the west coast region of Korea were purchased and were allowed to habituate at a water temperature of 18.5 to 21° C. in a sea water tank for one week. Since the Sebastes schlegeli infected with Clavinema mariae is able to be confirmed by visual inspection, the Sebastes schlegeli was anesthetized with MS-222, and only the Sebastes schlegeli infected with Clavinema mariae was screened by visual inspection and used for clinical examination.

[3] = tested on: Sebastes schlegeli; test: Mortality (death of fish) of treated Sebastes schlegeli
Text: For the oral administration, a predetermined amount of each candidate material was mixed with blended powder feed to prepare a feed pellet, the Sebastes schlegeli was anesthetized, and the feed pellet was inserted up to the stomach with tweezers (FIG. 2). […] After 2 weeks, all experimental fishes were anesthetized with MS-222, and Clavinema mariae was extracted with tweezers to confirm the death. The control group was anesthetized, and then only feed pill to which the drug is not added was orally administered thereto.
For this purpose, 10 Sebastes schlegeli infected with Clavinema mariae were divided for each experimental group, and when two weeks passed after the Ivermectin was administered a total of 1 to 4 times daily or every 2 to 4 days while changing an oral administration concentration from 1 to 18 ppm, the antiparasitic effect and the mortality of the Clavinema mariae were observed.

[4] = humans, after oral administration; cited from earlier work
[5] = tested on: Sebastes schlegeli; test: Histological analysis (H&E) of internal organs after Ivermectin oral administration; format: in vivo; conditions: for hepatocyte (liver histology): oral, 4 times, one week after last administration
Protocol: Ivermectin was orally administered to Sebastes schlegeli according to dosing concentrations, dosing times, and dosing intervals described in Table 6, and after one week from the last oral administration, histological analysis of internal organs was performed. The histological analysis was performed by fixing the liver, kidney, spleen and gill of the experimental fish with 10% neutral formalin, followed by dehydration and paraffin embedding, and the cut tissues were stained with hematoxylin-eosin (H & E) and examined. As a result of histopathological examination, the spleen, kidney, and gill except the liver were normal in all tissues as compared with the control group. […] Therefore, it was confirmed that administration of 1 ppm of Ivermectin 4 times daily or every 2 to 3 days or administration of 2 ppm of Ivermectin every 2 to 3 days was the most preferable administration method in view of stability.

[6] = 1 h, read-out: Viability of Clavinema mariae (Dead %/Survived)
[7] = at the concentrations shown in Table 4, once, after 2 weeks
[8] = medicated bath, 50 ppm, 10 minutes, 1 bath, after 2 weeks
[9] = medicated bath, 50 ppm, 10 minutes, 1 bath, observed for 2 weeks
[10] = oral, 5 ppm, 1 administration, after 2 weeks

C=O [Formaline, Formalin]
mortality at 25 ppm [1, 6]: 100% | mortality at 50 ppm [1, 6]: 100% | mortality at 70 ppm [1, 6]: 100% | mortality at 350 ppm [1, 6]: 100% | Antiparasitic effect of Clavinema mariae in vitro compared with the recommended concentration [1]: at a lower concentration than the recommended concentration | Killing Concentration (ppm) [1]: 25 ppm | Antiparasitic effect against Clavinema mariae on Sebastes schlegeli [2, 7]: could not be confirmed to have the antiparasitic effect | Killing Effect (%) [2, 8]: 0% | Killing Effect (%) ([2]; medicated bath, 200 ppm, 10 minutes, 1 bath, after 2 weeks): 0% | Death of fish (%) [3, 9]: 0% | Death of fish (%) ([3]; medicated bath, 200 ppm, 10 minutes, 1 bath, observed for 2 weeks): 0%

CC[C@H](C)[C@H]1O[C@]2(C=C[C@@H]1C)C[C@@H]1C[C@@H](C/C=C(\C)[C@@H](O[C@H]3C[C@H](OC)[C@@H](O[C@H]4C[C@H](OC)[C@@H](O)[C@H](C)O4)[C@H](C)O3)[C@@H](C)/C=C/C=C3\CO[C@@H]4[C@H](O)C(C)=C[C@@H](C(=O)O1)[C@]34O)O2 [avermectin]
Time to maximum plasma concentration [4]: 4 h | half-life [4]: about 16 hours

O=C(C1CCCCC1)N1CC(=O)N2CCc3ccccc3C2C1 (stereo not shown) [Praziquantel]
mortality at 800 ppm [1, 6]: 100% | mortality at 1600 ppm [1, 6]: 100% | Antiparasitic effect of Clavinema mariae in vitro compared with the recommended concentration [1]: did not show the antiparasitic effect of Clavinema mariae at a concentration 2000 times higher than the recommended concentration | Killing Concentration (ppm) [1]: 400-800 ppm

OO [Hydrogen peroxide]
mortality at 5 ppm [1, 6]: 100% | mortality at 10 ppm [1, 6]: 100% | mortality at 14 ppm [1, 6]: 100% | mortality at 280 ppm [1, 6]: 100% | Antiparasitic effect of Clavinema mariae in vitro compared with the recommended concentration [1]: at a lower concentration than the recommended concentration | Killing Concentration (ppm) [1]: <5 ppm | Antiparasitic effect against Clavinema mariae on Sebastes schlegeli [2, 7]: could not be confirmed to have the antiparasitic effect | Killing Effect (%) ([2]; medicated bath, 10 ppm, 10 minutes, 1 bath, after 2 weeks): 0% | Killing Effect (%) [2, 8]: 0% | Death of fish (%) ([3]; medicated bath, 10 ppm, 10 minutes, 1 bath, observed for 2 weeks): 0% | Death of fish (%) [3, 9]: 0%

Ivermectin
Viability of Clavinema mariae (Dead %/Survived) ([1]; 0.001 ppm in PBS): Survived | Viability of Clavinema mariae (Dead %/Survived) ([1]; 0.01 ppm in PBS): Dead (100%) | Viability of Clavinema mariae (Dead %/Survived) ([1]; 0.05 ppm in PBS): Dead (100%) | Viability of Clavinema mariae (Dead %/Survived) ([1]; 0.5 ppm in PBS): Dead (100%) | Antiparasitic effect of Clavinema mariae in vitro compared with the recommended concentration [1]: at a lower concentration than the recommended concentration | Killing Concentration (ppm) [1]: 0.001-0.01 ppm | Time until the spot where the pus is formed disappeared and was completely cured ([2]; oral, 1 ppm once): ≤ 6 weeks | Antiparasitic effect against Clavinema mariae on Sebastes schlegeli ([2]; oral, 1 ppm once, after two weeks): some individuals had pus in a spot infected with the Clavinema mariae, and showed the antiparasitic effect | Killing Effect (%) ([2]; oral, 1 ppm, 1 administration, after 2 weeks): 20% | Killing Effect (%) ([2]; oral, 1 ppm, 4 times, everyday, after two weeks): 100% | Killing Effect (%) ([2]; oral, 1 ppm, 4 times, intervals 2-3 days, after two weeks): 100% | Nematode antiparasitic effect ([2]; oral, 1 to 2 ppm, 4 times): 100% | State of the infection area after 6 weeks ([2]; oral, 1 to 2 ppm, 4 times, after 6 weeks): the infection area was cleanly treated | Killing Effect (%) ([2]; oral, 2 ppm, 4 times, everyday, after two weeks): 100% | Killing Effect (%) ([2]; oral, 2 ppm, 4 times, intervals 2-3 days, after two weeks): 100% | Killing Effect (%) ([2]; oral, 3 ppm, 2 times, everyday, after two weeks): 100% | Killing Effect (%) ([2]; oral, 3 ppm, 2 times, interval 3 days, after two weeks): 100% | Killing Effect (%) ([2]; oral, 4 ppm, 2 times, everyday, after two weeks): 100% | Killing Effect (%) ([2]; oral, 5 ppm, 2 times, everyday, after two weeks): 100% | Killing Effect (%) ([2]; oral, 6 ppm, 2 times, interval 4 days, after two weeks): 100% | Histopathological examination of spleen, kidney and gill ([5]; all regimens of Table 6, compared with the control group): normal | hepatocyte (liver histology) ([5]; 1 ppm, 2-3 days): Abnormality of the liver tissue was not confirmed; also recorded: Normal | hepatocyte (liver histology) ([5]; 1 ppm, everyday): Abnormality of the liver tissue was not confirmed; also recorded: Normal | hepatocyte (liver histology) ([5]; 2 ppm, 2-3 days): Abnormality of the liver tissue was not confirmed; also recorded: Normal | hepatocyte (liver histology) ([5]; 2 ppm, everyday): hepatocyte metamorphosis, vacuolar formation | Death of fish (%) ([3]; oral, 1 ppm, 1 administration, observed for 2 weeks): 0% | Death of fish (%) ([3]; oral, 1 ppm, 4 times, everyday): 0% | Death of fish (%) ([3]; oral, 1 ppm, 4 times, intervals 2-3 days): 0% | Behaviour and death of Sebastes schlegeli ([3]; oral, 2 ppm, 4 times): some Sebastes schlegeli were sitting on the bottom and died | Death of fish (%) ([3]; oral, 2 ppm, 4 times, everyday): 20% | Death of fish (%) ([3]; oral, 2 ppm, 4 times, intervals 2-3 days): 0% | Death of Sebastes schlegeli ([3]; oral, 3 ppm or more): death occurred after being administered 2 times | Death of fish (%) ([3]; oral, 3 ppm, 2 times, everyday): 60% | Death of fish (%) ([3]; oral, 3 ppm, 2 times, interval 3 days): 20% | Death of fish (%) ([3]; oral, 4 ppm, 2 times, everyday): 60% | Death of fish (%) ([3]; oral, 5 ppm, 2 times, everyday): 30% | Death of fish (%) ([3]; oral, 6 ppm, 2 times, interval 4 days): 70% | Death of fish (%) ([3]; oral, 18 ppm, 1 time): 100%

COP(=O)(OC)C(O)C(Cl)(Cl)Cl (stereo not shown) [Trichlorfon]
Viability of Clavinema mariae (Dead %/Survived) ([1]; 2.5 ppm in PBS): Survived | Viability of Clavinema mariae (Dead %/Survived) ([1]; 25 ppm in PBS): Survived | mortality at 50 ppm [1, 6]: 100% | mortality at 75 ppm [1, 6]: 100% | Antiparasitic effect of Clavinema mariae in vitro compared with the recommended concentration [1]: showed the antiparasitic effect at a very high concentration | Killing Concentration (ppm) [1]: 25-50 ppm

CN1CCCN=C1/C=C/c1cccs1 [Pyrantel]
mortality at 0.06 ppm [1, 6]: 20% | mortality at 0.09 ppm [1, 6]: 100% | mortality at 0.9 ppm [1, 6]: 100% | Antiparasitic effect of Clavinema mariae in vitro compared with the recommended concentration [1]: at a lower concentration than the recommended concentration | Killing Concentration (ppm) [1]: 0.02-0.06 ppm | Killing Effect (%) ([2]; oral, 2.7 ppm, 1 administration, after 2 weeks): 0% | Death of fish (%) ([3]; oral, 2.7 ppm, 1 administration, observed for 2 weeks): 0%

C1CNCCN1 [Piperazine]
mortality at 50 ppm [1, 6]: 100% | mortality at 75 ppm [1, 6]: 100% | mortality at 100 ppm [1, 6]: 100% | Antiparasitic effect of Clavinema mariae in vitro compared with the recommended concentration [1]: at a lower concentration than the recommended concentration | Killing Concentration (ppm) [1]: 33-50 ppm | Killing Effect (%) ([2]; oral, 100 ppm, 1 administration, after 2 weeks): 0% | Killing Effect (%) ([2]; oral, 300 ppm, 1 administration, after 2 weeks): 0% | Death of fish (%) ([3]; oral, 100 ppm, 1 administration, observed for 2 weeks): 0% | Death of fish (%) ([3]; oral, 300 ppm, 1 administration, observed for 2 weeks): 30%

COC(=O)Nc1nc2ccc(Sc3ccccc3)cc2[nH]1 [Fenbendazole]
Viability of Clavinema mariae (Dead %/Survived) ([1]; 1.7 ppm in PBS): Survived | Viability of Clavinema mariae (Dead %/Survived) ([1]; 5 ppm in PBS): Survived | mortality at 15 ppm [1, 6]: 100% | mortality at 30 ppm [1, 6]: 100% | Killing Concentration (ppm) [1]: 5-15 ppm | Killing Effect (%) [2, 10]: 0% | Killing Effect (%) ([2]; oral, 15 ppm, 1 administration, after 2 weeks): 0% | Death of fish (%) ([3]; oral, 5 ppm, 1 administration, observed for 2 weeks): 0% | Death of fish (%) ([3]; oral, 15 ppm, 1 administration, observed for 2 weeks): 0%

c1ccc([C@H]2CN3CCSC3=N2)cc1 [Levamisole]
mortality at 0.5 ppm [1, 6]: 20% | mortality at 1 ppm [1, 6]: 100% | mortality at 1.7 ppm [1, 6]: 100% | Antiparasitic effect of Clavinema mariae in vitro compared with the recommended concentration [1]: at a lower concentration than the recommended concentration | Killing Effect (%) ([2]; oral, 2.5 ppm, 1 administration, after 2 weeks): 0% | Killing Effect (%) [2, 10]: 0%
